Patent publication US20240308960A1 (Sumitomo Pharma Co., Ltd., priority 2021, published 2024)

target: T1, Human orexin receptor type 2 (Homo sapiens, UniProt O43614); test: Test Example 1: agonist activity for orexin receptor type 2 (aequorin luminescence, intracellular calcium mobilization); settings: compound 10 μm; CHO cells transiently expressing human orexin receptor type 2 and apoaequorin; relative percentage of luminescence for the luminescence (100%) of Orexin A (100 μM)
T1 sequence (O43614 1-444): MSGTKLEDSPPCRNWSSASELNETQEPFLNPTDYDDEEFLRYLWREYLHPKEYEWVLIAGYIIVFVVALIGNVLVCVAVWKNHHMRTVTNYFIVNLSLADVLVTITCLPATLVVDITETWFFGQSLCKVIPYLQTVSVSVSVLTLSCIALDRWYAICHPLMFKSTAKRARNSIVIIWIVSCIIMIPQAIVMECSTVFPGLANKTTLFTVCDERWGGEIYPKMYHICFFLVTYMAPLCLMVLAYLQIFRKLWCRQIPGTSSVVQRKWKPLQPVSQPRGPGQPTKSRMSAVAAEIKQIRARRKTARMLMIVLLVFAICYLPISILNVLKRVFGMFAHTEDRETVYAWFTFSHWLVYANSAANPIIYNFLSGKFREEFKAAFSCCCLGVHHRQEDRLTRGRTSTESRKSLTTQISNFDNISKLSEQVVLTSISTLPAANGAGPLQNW

Agonist Activity (%) | SMILES
146 | CCc1nc(C2(C)CCN(C(=O)Nc3c(Cl)cccc3N3CCN(C(C)C)CC3)CC2)no1 [Example 83, N-{2-chloro-6-[4-(propan-2-yl)piperazin-1-yl]phenyl}-4-(5-ethyl-1,2,4-oxadiazol-3-yl)-4-methylpiperidine-1-carboxamide]
127 | CC(C)N1CCN(c2cccc(F)c2NC(=O)N2CCC(C)(c3noc(C4CC4)n3)CC2)CC1 [Example 45, 4-(5-cyclopropyl-1,2,4-oxadiazol-3-yl)-N-{2-fluoro-6-[4-(propan-2-yl)piperazin-1-yl]phenyl}-4-methylpiperidine-1-carboxamide]
141 | COCCN1CCN(c2ccccc2NC(=O)N2CCC(c3ccc(C)cc3)CC2)CC1 [Example 125, N-{2-[4-(2-methoxyethyl)piperazin-1-yl]phenyl}-4-(4-methylphenyl)piperidine-1-carboxamide]
99 | CC(C)N1CCN(c2ccccc2NC(=O)N2CCC(C)(c3nc(-c4cccnc4)no3)CC2)CC1 [Example 13, 4-methyl-N-{2-[4-(propan-2-yl)piperazin-1-yl]phenyl}-4-[3-(pyridin-3-yl)-1,2,4-oxadiazol-5-yl]piperidine-1-carboxamide]
101 | COc1cccc(N2CCN(C(C)C)CC2)c1NC(=O)N1CCC(c2ccc(C(F)(F)F)cc2)CC1 [Example 15, N-{2-methoxy-6-[4-(propan-2-yl)piperazin-1-yl]phenyl}-4-[4-(trifluoromethyl)phenyl]piperidine-1-carboxamide]
158 | CC(C)c1ccc(-c2cccc(F)c2NC(=O)N2CCC(C)(c3cc(C4CC4)on3)CC2)cn1 [Example 59, 4-(5-cyclopropyl-1,2-oxazol-3-yl)-N-{2-fluoro-6-[6-(propan-2-yl)pyridin-3-yl]phenyl}-4-methylpiperidine-1-carboxamide]
154 | CC(C)N1CCN(c2ccccc2NC(=O)N2CCC(c3ccccc3)CC2)CC1 [Example 7, 4-phenyl-N-{2-[4-(propan-2-yl)piperazin-1-yl]phenyl}piperidine-1-carboxamide]
136 | COc1cccc(N2CCN(C(C)C)CC2)c1NC(=O)N1CCC(C)(c2noc(C(F)(F)F)n2)CC1 [Example 25, N-{2-methoxy-6-[4-(propan-2-yl)piperazin-1-yl]phenyl}-4-methyl-4-[5-(trifluoromethyl)-1,2,4-oxadiazol-3-yl]piperidine-1-carboxamide]
130 | CC(CF)N1CC=C(c2cccc(Cl)c2NC(=O)N2CCC(C)(c3noc(C4CC4)n3)CC2)CC1 (centres unmarked) [Example 142, N-{2-chloro-6-[1-(1-fluoropropan-2-yl)-1,2,3,6-tetrahydropyridin-4-yl]phenyl}-4-(5-cyclopropyl-1,2,4-oxadiazol-3-yl)-4-methylpiperidine-1-carboxamide]
149 | CC(C)N1CCN(c2cccc(Cl)c2NC(=O)N2CCC(C)(c3noc([C@@H]4C[C@@H]4C)n3)CC2)CC1 [Example 118, N-{2-chloro-6-[4-(propan-2-yl)piperazin-1-yl]phenyl}-4-methyl-4-{5-[(1R,2S)-2-methylcyclopropyl]-1,2,4-oxadiazol-3-yl}piperidine-1-carboxamide]
141 | CC(C)N1CC(Oc2cccc(Cl)c2NC(=O)N2CCC(C)(c3noc(C4CC4)n3)CC2)C1 [Example 160, N-(2-chloro-6-{[1-(propan-2-yl)azetidin-3-yl]oxy}phenyl)-4-(5-cyclopropyl-1,2,4-oxadiazol-3-yl)-4-methylpiperidine-1-carboxamide]
63 | Cc1ccc(C2CCN(C(=O)Nc3c(F)cccc3N3CCN(C(C)C)CC3)CC2C)cc1 (racemic) [Example 26, Rac-N-{2-fluoro-6-[4-(propan-2-yl)piperazin-1-yl]phenyl}-3-methyl-4-(4-methylphenyl)piperidine-1-carboxamide]
110 | CC(C)c1noc(C2(C)CCN(C(=O)Nc3ccccc3N3CCN(C(C)C)CC3)CC2)n1.Cl [Example 163, 4-methyl-4-[3-(propan-2-yl)-1,2,4-oxadiazol-5-yl]-N-{2-[4-(propan-2-yl)piperazin-1-yl]phenyl}piperidine-1-carboxamide hydrochloride]
27 | CCN1CCN(c2ccccc2NC(=O)N2CCC(c3cc(OC)cc(OC)c3)CC2)CC1 [Example 3, 4-(3,5-dimethoxyphenyl)-N-[2-(4-ethylpiperazin-1-yl)phenyl]piperidine-1-carboxamide]
136 | CCOc1cccc(C2CCN(C(C)CC)CC2)c1NC(=O)N1CCC(c2ccc(C)cc2)CC1 (centres unmarked) [Example 128, N-{2-[1-(butan-2-yl)piperidin-4-yl]-6-ethoxyphenyl}-4-(4-methylphenyl)piperidine-1-carboxamide]
145 | Cc1nc(C2(C)CCN(C(=O)Nc3c(Cl)cccc3N3CCN(C(C)C)CC3)CC2)no1 [Example 81, N-{2-chloro-6-[4-(propan-2-yl)piperazin-1-yl]phenyl}-4-methyl-4-(5-methyl-1,2,4-oxadiazol-3-yl)piperidine-1-carboxamide]
150 | Cc1ccc(C2CCN(C(=O)Nc3c(C(=O)N(C)C)cccc3N3CCN(C(C)C)CC3)CC2)cc1 [Example 33, N-{2-(dimethylcarbamoyl)-6-[4-(propan-2-yl)piperazin-1-yl]phenyl}-4-(4-methylphenyl)piperidine-1-carboxamide]
145 | CCOc1cccc(C2CCN(C(C)C)CC2)c1NC(=O)N1CCC(c2ccc(C)cc2)CC1 [Example 127, N-{2-ethoxy-6-[1-(propan-2-yl)piperidin-4-yl]phenyl}-4-(4-methylphenyl)piperidine-1-carboxamide]
27 | Cc1ccc(C2CCN(C(=O)Nc3ccccc3N3CCN(C4CCOC4)CC3)CC2)cc1 (centres unmarked) [Example 124, 4-(4-methylphenyl)-N-{2-[4-(oxolan-3-yl)piperazin-1-yl]phenyl}piperidine-1-carboxamide]
121 | CC(CF)N1CC=C(c2cccc(Cl)c2NC(=O)N2CCC(C)(c3cc(C4CC4)on3)CC2)CC1 (centres unmarked) [Example 141, N-{2-chloro-6-[1-(1-fluoropropan-2-yl)-1,2,3,6-tetrahydropyridin-4-yl]phenyl}-4-(5-cyclopropyl-1,2-oxazol-3-yl)-4-methylpiperidine-1-carboxamide]
77 | Cc1cccc(C2CCN(C(=O)Nc3c(F)cccc3N3CCN(C(C)C)CC3)CC2)c1 [Example 29, N-{2-fluoro-6-[4-(propan-2-yl)piperazin-1-yl]phenyl}-4-(3-methylphenyl)piperidine-1-carboxamide]
122 | CC(C)c1ccc(C2CCN(C(=O)Nc3c(F)cccc3N3CCN(C(C)C)CC3)CC2)cc1 [Example 40, N-{2-fluoro-6-[4-(propan-2-yl)piperazin-1-yl]phenyl}-4-[4-(propan-2-yl)phenyl]piperidine-1-carboxamide]
171 | CC(C)N1CCN(c2cccc(F)c2NC(=S)N2CCC(C)(c3noc(C4CC4)n3)CC2)CC1 [Example 57, 4-(5-cyclopropyl-1,2,4-oxadiazol-3-yl)-N-{2-fluoro-6-[4-(propan-2-yl)piperazin-1-yl]phenyl}-4-methylpiperidine-1-carbothioamide]
157 | CC(C)N1CCN(c2cccc(Cl)c2NC(=O)N2CCC(C)(c3noc(C4(C)CC4)n3)CC2)CC1 [Example 80, N-{2-chloro-6-[4-(propan-2-yl)piperazin-1-yl]phenyl}-4-methyl-4-[5-(1-methylcyclopropyl)-1,2,4-oxadiazol-3-yl]piperidine-1-carboxamide]
121 | Cc1ccc(C2CCN(C(=O)Nc3c(F)cccc3C3=CCN(C(C)C)C3)CC2)cc1 [Example 139, N-{2-fluoro-6-[1-(propan-2-yl)-2,5-dihydro-1H-pyrrol-3-yl]phenyl}-4-(4-methylphenyl)piperidine-1-carboxamide]
49 | Cc1ccc(C2CCN(C(=O)Nc3c(F)cccc3N3CCN(C(C)C)CC3)CC2)nc1 [Example 46, N-{2-fluoro-6-[4-(propan-2-yl)piperazin-1-yl]phenyl}-4-(5-methylpyridin-2-yl)piperidine-1-carboxamide]
157 | COC1(c2nc(C3(C)CCN(C(=O)Nc4c(Cl)cccc4N4CCN(C(C)C)CC4)CC3)no2)CC1 [Example 108, N-{2-chloro-6-[4-(propan-2-yl)piperazin-1-yl]phenyl}-4-[5-(1-methoxycyclopropyl)-1,2,4-oxadiazol-3-yl]-4-methylpiperidine-1-carboxamide]
44 | CC1(c2noc(C3CC3)n2)CCN(C(=O)Nc2c(F)cccc2C2=CCOCC2)CC1 [Example 56, 4-(5-cyclopropyl-1,2,4-oxadiazol-3-yl)-N-[2-(3,6-dihydro-2H-pyran-4-yl)-6-fluorophenyl]-4-methylpiperidine-1-carboxamide]

SMILES | Agonist Activity (%)
CC(C)N1C2CCC1CN(c1cccc(F)c1NC(=O)N1CCC(C)(c3noc(C4CC4)n3)CC1)C2 [Example 155, 4-(5-cyclopropyl-1,2,4-oxadiazol-3-yl)-N-{2-fluoro-6-[8-(propan-2-yl)-3,8-diazabicyclo[3.2.1]octan-3-yl]phenyl}-4-methylpiperidine-1-carboxamide] | 55
